# Test results: PMC9378504 (Journal of medicinal chemistry, 2022)
# Columns and labels:
# IKZF3 [1] = molecular target: T1, IKZF3 (Homo sapiens, UniProt Q96SW2+Q9UKT9); experiment: Western blotting of IKZF3 protein level in CRBN KO 293FT cells; type: cell-based; settings: 293FT cells with CRISPR-Cas9-mediated KO of CRBN, range of concentrations, 48 h
# H929 cells = experiment: Cell growth inhibition assay in H929 cells; type: cell-based, Human; settings: 2.5 μM, 8 days
# [2] = system: 20 protein lysine and arginine methyltransferases including NSD1/2/3; experiment: Selectivity assay, radioisotope-based filter binding; type: biochemical, human; settings: 10 μM, in duplicate, SAM 1 μM
# NSD2 [3] = molecular target: T2, NSD2 (Homo sapiens, UniProt O96028); experiment: Western blotting of NSD2 protein level in 293FT cells; type: cell-based
# T2 sequence (O96028 1-1365): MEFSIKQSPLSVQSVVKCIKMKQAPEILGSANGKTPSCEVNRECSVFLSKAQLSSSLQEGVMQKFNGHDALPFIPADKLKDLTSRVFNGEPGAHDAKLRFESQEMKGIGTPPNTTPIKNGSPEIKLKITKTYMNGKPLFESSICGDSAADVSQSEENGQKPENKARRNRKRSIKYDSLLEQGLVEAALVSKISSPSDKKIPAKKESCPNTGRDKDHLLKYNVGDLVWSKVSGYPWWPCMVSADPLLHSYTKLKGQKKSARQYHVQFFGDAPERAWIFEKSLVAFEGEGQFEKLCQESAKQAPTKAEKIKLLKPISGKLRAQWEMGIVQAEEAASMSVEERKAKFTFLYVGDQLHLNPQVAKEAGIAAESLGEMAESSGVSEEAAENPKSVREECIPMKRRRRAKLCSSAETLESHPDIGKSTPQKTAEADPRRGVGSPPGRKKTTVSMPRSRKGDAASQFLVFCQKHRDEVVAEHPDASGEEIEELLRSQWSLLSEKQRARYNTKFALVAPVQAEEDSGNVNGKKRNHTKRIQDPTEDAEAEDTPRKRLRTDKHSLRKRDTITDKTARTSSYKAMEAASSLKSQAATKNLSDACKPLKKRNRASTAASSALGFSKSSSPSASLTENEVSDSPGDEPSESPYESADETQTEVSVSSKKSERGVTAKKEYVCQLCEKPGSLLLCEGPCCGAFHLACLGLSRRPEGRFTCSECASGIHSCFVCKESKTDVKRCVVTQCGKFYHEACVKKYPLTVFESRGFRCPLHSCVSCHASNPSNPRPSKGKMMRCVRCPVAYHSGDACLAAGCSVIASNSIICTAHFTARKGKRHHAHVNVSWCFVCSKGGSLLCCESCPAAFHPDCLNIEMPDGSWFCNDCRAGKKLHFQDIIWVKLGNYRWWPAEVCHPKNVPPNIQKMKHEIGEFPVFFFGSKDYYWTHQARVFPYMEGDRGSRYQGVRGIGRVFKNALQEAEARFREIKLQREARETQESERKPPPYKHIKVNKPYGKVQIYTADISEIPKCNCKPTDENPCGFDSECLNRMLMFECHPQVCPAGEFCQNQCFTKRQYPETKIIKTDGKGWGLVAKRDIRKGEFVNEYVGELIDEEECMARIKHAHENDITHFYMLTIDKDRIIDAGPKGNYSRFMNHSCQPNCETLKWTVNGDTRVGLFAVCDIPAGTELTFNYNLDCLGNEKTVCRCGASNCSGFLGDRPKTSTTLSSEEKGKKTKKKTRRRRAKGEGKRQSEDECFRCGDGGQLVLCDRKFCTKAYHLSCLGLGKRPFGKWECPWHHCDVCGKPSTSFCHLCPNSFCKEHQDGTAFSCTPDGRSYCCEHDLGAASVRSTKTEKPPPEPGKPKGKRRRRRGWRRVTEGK
# IKZF3 [4] = molecular target: T1, IKZF3; experiment: Western blotting of IKZF3 protein level in KMS11 cells; type: cell-based; settings: then 5 μM for 6 h
# NSD2 [5] = molecular target: T2, NSD2; experiment: Western blotting of NSD2 protein level in H929 cells; type: cell-based; settings: 2.5 μM, 72 h
# IKZF1 [6] = molecular target: T3, IKZF1 (Homo sapiens, UniProt Q13422+Q96SW2); experiment: Western blotting of IKZF1 protein level in H929 cells; type: cell-based; settings: 2.5 μM, 72 h
# T3 sequence (Q13422 whole entry): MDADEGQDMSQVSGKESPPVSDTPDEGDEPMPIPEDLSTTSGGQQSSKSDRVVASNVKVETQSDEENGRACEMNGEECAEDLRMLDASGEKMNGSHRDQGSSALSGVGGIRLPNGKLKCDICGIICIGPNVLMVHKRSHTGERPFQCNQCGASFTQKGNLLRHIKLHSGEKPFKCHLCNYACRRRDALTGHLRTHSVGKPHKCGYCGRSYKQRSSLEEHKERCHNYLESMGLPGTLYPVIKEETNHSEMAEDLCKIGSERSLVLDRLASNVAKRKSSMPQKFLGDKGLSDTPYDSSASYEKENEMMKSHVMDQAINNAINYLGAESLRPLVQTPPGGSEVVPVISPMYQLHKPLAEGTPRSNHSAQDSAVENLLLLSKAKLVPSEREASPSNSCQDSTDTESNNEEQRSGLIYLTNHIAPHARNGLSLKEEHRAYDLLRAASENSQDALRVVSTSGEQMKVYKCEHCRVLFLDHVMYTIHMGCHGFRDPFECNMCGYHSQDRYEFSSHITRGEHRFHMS
# T3 sequence (Q96SW2 whole entry): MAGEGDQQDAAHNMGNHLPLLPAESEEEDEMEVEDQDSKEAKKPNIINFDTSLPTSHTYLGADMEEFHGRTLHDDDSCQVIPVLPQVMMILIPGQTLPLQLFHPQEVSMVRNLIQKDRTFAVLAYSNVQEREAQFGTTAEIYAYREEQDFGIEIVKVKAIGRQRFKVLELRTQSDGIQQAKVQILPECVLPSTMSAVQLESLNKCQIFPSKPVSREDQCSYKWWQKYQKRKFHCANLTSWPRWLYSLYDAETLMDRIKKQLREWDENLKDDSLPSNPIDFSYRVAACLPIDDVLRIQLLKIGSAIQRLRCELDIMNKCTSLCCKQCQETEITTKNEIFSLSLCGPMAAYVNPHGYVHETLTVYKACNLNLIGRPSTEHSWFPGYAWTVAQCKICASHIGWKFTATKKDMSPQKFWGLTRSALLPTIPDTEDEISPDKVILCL
# T3 sequence (Q16531 whole entry partner): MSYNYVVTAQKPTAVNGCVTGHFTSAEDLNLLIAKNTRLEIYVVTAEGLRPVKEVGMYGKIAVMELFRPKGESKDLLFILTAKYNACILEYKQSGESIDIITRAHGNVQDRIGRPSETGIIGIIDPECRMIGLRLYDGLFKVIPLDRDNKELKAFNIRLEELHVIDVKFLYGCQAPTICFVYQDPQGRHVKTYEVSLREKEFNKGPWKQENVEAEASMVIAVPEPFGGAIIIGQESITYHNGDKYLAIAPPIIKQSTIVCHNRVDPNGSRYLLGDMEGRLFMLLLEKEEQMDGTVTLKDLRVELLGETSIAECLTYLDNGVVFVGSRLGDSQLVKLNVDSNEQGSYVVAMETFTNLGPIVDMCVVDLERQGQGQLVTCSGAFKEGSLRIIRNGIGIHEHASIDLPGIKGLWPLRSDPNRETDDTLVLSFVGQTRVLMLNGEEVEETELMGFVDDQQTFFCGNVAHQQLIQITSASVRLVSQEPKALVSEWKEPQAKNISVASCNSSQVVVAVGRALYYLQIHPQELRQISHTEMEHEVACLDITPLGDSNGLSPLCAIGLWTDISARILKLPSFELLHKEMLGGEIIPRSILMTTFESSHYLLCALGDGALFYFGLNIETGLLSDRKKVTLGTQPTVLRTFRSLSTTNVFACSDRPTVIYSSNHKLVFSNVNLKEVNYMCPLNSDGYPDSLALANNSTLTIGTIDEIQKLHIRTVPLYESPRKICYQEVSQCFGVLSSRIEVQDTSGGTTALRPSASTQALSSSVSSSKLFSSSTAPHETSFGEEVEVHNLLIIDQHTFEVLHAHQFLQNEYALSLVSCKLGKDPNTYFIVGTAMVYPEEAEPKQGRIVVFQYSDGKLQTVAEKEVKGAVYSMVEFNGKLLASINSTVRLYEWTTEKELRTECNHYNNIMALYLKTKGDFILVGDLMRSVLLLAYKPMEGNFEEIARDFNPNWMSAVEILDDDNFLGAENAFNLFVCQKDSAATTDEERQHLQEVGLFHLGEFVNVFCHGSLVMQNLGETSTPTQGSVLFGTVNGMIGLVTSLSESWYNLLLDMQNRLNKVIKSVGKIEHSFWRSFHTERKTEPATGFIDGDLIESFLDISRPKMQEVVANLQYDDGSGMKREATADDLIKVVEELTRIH
# IKZF1 [7] = molecular target: T3, IKZF1; experiment: Western blotting of IKZF1 protein level in KMS11 cells; type: cell-based; settings: for IKZF1 degradation after pretreatment: then 5 μM for 6 h
# IKZF3 [8] = molecular target: T1, IKZF3; experiment: Western blotting of IKZF3 protein level in 293FT cells; type: cell-based; settings: for IKZF3 protein level after pretreatment: 293FT cells, then 5 μM for 6 h
# KMS11 cells = experiment: Cell growth inhibition assay in KMS11 cells; type: cell-based, Human; settings: 2.5 μM, 8 days
# NSD2 [9] = molecular target: T2, NSD2; experiment: Western blotting of NSD2 protein level in KMS11 cells; type: cell-based; settings: 2.5 μM, 72 h
# NSD2 [10] = molecular target: T2, NSD2; experiment: Western blotting of NSD2 protein level in CRBN KO 293FT cells; type: cell-based; settings: 293FT cells with CRISPR-Cas9-mediated KO of CRBN, range of concentrations, 48 h
# Mouse PK study = type: in vivo; settings: single IP 50 mg/kg, male Swiss albino mice
# GSPT1 [11] = experiment: Western blotting of GSPT1 protein level in H929 cells; type: cell-based, Human; settings: 2.5 μM, 72 h
# GSPT1 [12] = experiment: Western blotting of GSPT1 protein level in KMS11 cells; type: cell-based, Human; settings: 2.5 μM, 72 h
# [13] = WT 293FT cells, range of concentrations, 48 h
# [14] = pretreated with 10 nM MLN9708 for 2 h
# [15] = pretreated with 0.5 μM MLN4924 for 2 h
# T1 sequence (Q9UKT9 whole entry): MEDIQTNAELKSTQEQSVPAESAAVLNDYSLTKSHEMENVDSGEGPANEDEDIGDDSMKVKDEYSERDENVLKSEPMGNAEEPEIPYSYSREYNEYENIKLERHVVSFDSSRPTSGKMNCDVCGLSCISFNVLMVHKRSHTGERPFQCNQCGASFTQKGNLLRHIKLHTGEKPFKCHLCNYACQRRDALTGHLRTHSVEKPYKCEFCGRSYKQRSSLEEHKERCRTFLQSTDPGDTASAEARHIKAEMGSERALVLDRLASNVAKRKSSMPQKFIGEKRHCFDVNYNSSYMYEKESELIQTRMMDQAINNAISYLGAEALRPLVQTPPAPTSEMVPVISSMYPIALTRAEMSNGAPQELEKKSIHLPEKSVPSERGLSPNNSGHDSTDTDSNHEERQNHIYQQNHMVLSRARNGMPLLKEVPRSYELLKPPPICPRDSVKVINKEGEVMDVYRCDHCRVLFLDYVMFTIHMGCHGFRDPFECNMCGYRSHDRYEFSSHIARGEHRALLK
# T1 sequence (Q96SW2 whole entry): as the sequence (Q96SW2 whole entry) above
# T1 sequence (Q16531 whole entry partner): as the sequence (Q16531 whole entry partner) above
compound,measurement,setting,value
"O=C(CNc1cccc2c1C(=O)N(C1CCC(=O)NC1=O)C2=O)NCCCOc1ccc(NC(=O)c2ccc(CN(C(=O)c3ccc4c(c3)OCC(=O)N4)C3CC3)cc2)nc1 (stereo not shown) [Compound 9, N-Cyclopropyl-N-(4-((5-(3-(2-((2-(2,6-dioxopiperidin-3-yl)-1,3-dioxoisoindolin-4-yl)amino)acetamido)propoxy)pyridin-2-yl)-carbamoyl)benzyl)-3-oxo-3,4-dihydro-2H-benzo[b][1,4]oxazine-7-carboxamide]",IKZF3 degradation,IKZF3 [1],no NSD2 or IKZF3 degradation was detected
same,Cell growth inhibition,H929 cells,effectively inhibited the growth
same,Inhibition of 20 methyltransferases (selectivity),[2],did not inhibit any of the 20 methyltransferases
same,NSD2 protein level on cotreatment,"NSD2 [3]; 293FT cells, 5 μM for 48 h, cotreated with 5 μM UNC6934 during the last 6 h",significantly rescued
same,"NSD2 degradation, time course","NSD2 [3]; 293FT cells, 5 μM, 36 h",some NSD2 degradation
same,"NSD2 degradation, time course","NSD2 [3]; 293FT cells, 5 μM, 48 h",significant degradation
same,"NSD2 degradation, time course","NSD2 [3]; 293FT cells, 5 μM, 72 h",maximum degradation effect
same,NSD2 protein level after washout,"NSD2 [3]; 293FT cells, 5 μM, then washout, 48 h post washout",fully recovered
same,NSD2 protein level,"NSD2 [3]; 293FT cells, 2.5 and 10 μM, 48 h, Figure 2",effectively induced degradation of NSD2 at both 2.5 and 10 μM without a hook effect
same,NSD2 degradation,NSD2 [3]; [13],clear degradation of NSD2 and IKZF3 was observed
same,IKZF3 degradation after pretreatment,IKZF3 [4]; [14],at least partially rescued the IKZF1 and IKZF3 degradation
same,IKZF3 degradation after pretreatment,IKZF3 [4]; [15],at least partially rescued the IKZF1 and IKZF3 degradation
same,NSD2 degradation,NSD2 [5],effectively degraded NSD2
same,IKZF1 protein level,IKZF1 [6],clearly reduced the IKZF1 protein level
same,IKZF1 protein level,"IKZF1 [7]; 2.5 μM, 72 h",clearly reduced the IKZF1 protein level
same,IKZF1 degradation after pretreatment,IKZF1 [7]; [14],at least partially rescued the IKZF1 and IKZF3 degradation
same,IKZF1 degradation after pretreatment,IKZF1 [7]; [15],at least partially rescued the IKZF1 and IKZF3 degradation
same,IKZF3 protein level after pretreatment,IKZF3 [8]; [14],successfully restored the IKZF3 protein level
same,IKZF3 protein level after pretreatment,IKZF3 [8]; [15],successfully restored the IKZF3 protein level
same,IKZF3 degradation,IKZF3 [8]; [13],clear degradation of NSD2 and IKZF3 was observed
same,Cell growth inhibition,KMS11 cells,effectively inhibited the growth
same,NSD2 degradation,NSD2 [9],effectively degraded NSD2
same,NSD2 degradation,NSD2 [10],no NSD2 or IKZF3 degradation was detected
same,clinical signs,Mouse PK study; PK study,no clinical signs were observed
same,tolerability,Mouse PK study; PK study,well tolerated
same,maximum plasma concentration,Mouse PK study; mean ± SD from three mice,1.35 ± 0.08 µM
same,GSPT1 degradation,GSPT1 [11],did not degrade GSPT1
same,GSPT1 degradation,GSPT1 [12],did not degrade GSPT1
